Patent publication US20080009435A1, “Synthetic methods for aplidine and new antitumoral derivatives, methods of making and using them” (Pharma Mar, S.A., a Spain corporation, priority 2000, published 2008)
*1 amine or outer side, *2 acyl side, *3 side chain or, on linkers, in order; H or OH if unused. Where a SMILES comes first, the peptide text is derived from it. Bridges are numbered along the chain shown (N, C = ends). [ ]: non-standard residue; d: D form. The star is where a group is joined. X2 = CC[C@H](C)[C@@H](N[*:1])[C@@H](O)CC(=O)[*:2]; NMeY = CN[C@@H](Cc1ccc(O)cc1)C(=O)O; dNMeL = CN[C@H](CC(C)C)C(=O)O; Hiv = CC(C)[C@H](O)C(=O)O; Pyruvoyl = CC(=O)C(=O)*

Legend:
5637 (Bladder) = assay: IC50 Aplidine Family panel (MTT/MTS); type: cell-based; conditions: MTS (new); read-out: IC50 (Molar) Bladder 5637
P388 Murine lymphoma = assay: Cytotoxicity IC50 (after Berjeron et al); conditions: Mus musculus, P388, read-out: Cytotoxicity of [aa3]-aplidine Congeners IC50 (Molar) P388
From the text: (§1) Methodology: after Berjeron et al, Biochem and Bioph Res. Comm., 1984, 121, 3, 848-854.
(§2) P388=Murine lymphoma. A549=human lung carcinoma. HT-29=human colon carcinoma. MEL-28=human melanoma.
(§3) A549=human lung carcinoma. HT-29=human colon carcinoma. MEL-28=human melanoma.

FADU (Pharynx) = assay: IC50 Aplidine Family panel (MTT/MTS); type: cell-based; conditions: Homo sapiens, FaDu; MTS (new); read-out: IC50 (Molar) Pharynx FADU
CHSA (Chondrosarcoma) = assay: IC50 Aplidine Family panel (MTS); type: cell-based; conditions: MTS (new); read-out: IC50 (Molar) Chondrosarcoma CHSA
SK-HEP-1 (Liver) = assay: IC50 Aplidine Family panel (MTT/MTS); type: cell-based; conditions: Homo sapiens, SK-HEP1; MTS (new); read-out: IC50 (Molar) Liver SK-HEP-1
Hs746t (Gastric) = assay: IC50 Aplidine Family panel (MTT/MTS); type: cell-based; conditions: Homo sapiens, Hs746T; MTS (new); read-out: IC50 (Molar) Gastric Hs746t
HT-29 (Colon) = assay: IC50 Aplidine Family panel (MTT/MTS); type: cell-based, human; conditions: Homo sapiens, HT-29; MTS (new); read-out: IC50 (Molar) Colon HT-29
[1] = test system: HT-29 human colon carcinoma; assay: Cytotoxicity IC50 (after Berjeron et al); conditions: Homo sapiens, HT-29, read-out: Cytotoxicity of [aa3]-aplidine Congeners IC50 (Molar) HT29
From the text: as §1, §2, §3

[2] = test system: Molt 3 (ALL, Acute lymphobalstic); assay: IC50 Aplidine Family panel (MTT/MTS); type: cell-based; conditions: Homo sapiens, MOLT-3; MTS (new); read-out: IC50 (Molar) ALL (Acute lymphobalstic) Molt 3
OSA-FH (Osteosarcoma) = assay: IC50 Aplidine Family panel (MTS); type: cell-based; conditions: MTS (new); read-out: IC50 (Molar) Osteosarcoma OSA-FH
Mel-28 (Melanoma) = assay: IC50 Aplidine Family panel (MTS); type: cell-based; conditions: Homo sapiens, SK-MEL-28; MTS (new); read-out: IC50 (Molar) Melanoma Mel-28
MEL-28 human melanoma = assay: Cytotoxicity IC50 (after Berjeron et al); conditions: Homo sapiens, SK-MEL-28, read-out: Cytotoxicity of [aa3]-aplidine Congeners IC50 (Molar) MEL28
From the text: as §1, §2, §3

LNCAP (Prostate) = assay: IC50 Aplidine Family panel (MTS); type: cell-based; conditions: Homo sapiens, MTS (new), read-out: IC50 (Molar) Prostate LNCAP
[3] = test system: MC116 (Lymphoma, undifferentiated); assay: IC50 Aplidine Family panel (MTT/MTS); type: cell-based; conditions: Homo sapiens, MC116; MTS (new); read-out: IC50 (Molar) Lymphoma (undifferentiated) MC116
[4] = test system: solid tumors like colon, chondrosarcoma and osteosarcoma; assay: MTS assay, specificity against solid tumors; type: cell-based; conditions: with respect to didemnin B (III)
[5] = test system: K562 (CML, Chronic myelogenous); assay: IC50 Aplidine Family panel (MTT/MTS); type: cell-based; conditions: Homo sapiens, K562; MTS (new); read-out: IC50 (Molar) CML (Chronic myelogenous) K562
[6] = test system: A549 human lung carcinoma; assay: Cytotoxicity IC50 (after Berjeron et al); conditions: Homo sapiens, A549, read-out: Cytotoxicity of [aa3]-aplidine Congeners IC50 (Molar) A549
From the text: as §1, §2, §3

tumor cells = assay: In vitro antitumor activity; type: cell-based
pancreatic carcinoma = conditions: compared with III (didemnin B); cited from earlier work
[7] = test system: tumor cells (clonogenic assays); conditions: compared with III (didemnin B); cited from earlier work
NCI 60 cell panel = conditions: cited from earlier work
protein biosynthesis = conditions: compared with III (didemnin B); cited from earlier work

Compound: CC[C@H](C)[C@H]1NC(=O)[C@@H](NC(=O)[C@@H](CC(C)C)N(C)C(=O)[C@@H]2CCCN2C(=O)C(C)=O)[C@@H](C)OC(=O)[C@H](Cc2ccc(OC)cc2)N(C)C(=O)[C@@H]2CCCN2C(=O)[C@H](CC(C)C)NC(=O)[C@H](C(C)C)OC(=O)C[C@@H]1O [SHPL1, [Hiv]^3-Aplidine] (Pyruvoyl-P[dNMeL]T[X2][Hiv]LP[NMeY](Me); ester 3-C)
- IC50 (5637 (Bladder)): 90.2 nM
- IC50 (P388 Murine lymphoma): 0.474 nM
- IC50 (FADU (Pharynx)): 37.1 nM
- IC50 (CHSA (Chondrosarcoma)): 3.45 nM
- IC50 (SK-HEP-1 (Liver)): 265 nM
- IC50 (Hs746t (Gastric)): 71.6 nM
- IC50 (HT-29 (Colon)): 10.2 nM
- IC50 [1]: 0.474 nM
- IC50 [2]: 17.7 nM
- IC50 (OSA-FH (Osteosarcoma)): 5.89 nM
- IC50 (Mel-28 (Melanoma)): 486 nM
- IC50 (MEL-28 human melanoma): 0.474 nM
- IC50 (LNCAP (Prostate)): 14.6 nM
- IC50 [3]: 382 nM
- specificity against solid tumors in the MTS assay [4]: more specific against solid tumors like colon, chondrosarcoma and osteosarcoma
- IC50 [5]: 521 nM
- IC50 [6]: 0.474 nM

Compound: CC[C@H](C)[C@H]1NC(=O)[C@@H](NC(=O)[C@@H](CC(C)C)N(C)C(=O)[C@@H]2CCCN2C(=O)C(C)=O)[C@@H](C)OC(=O)[C@H](Cc2ccc(OC)cc2)N(C)C(=O)[C@@H]2CCCN2C(=O)[C@H](CC(C)C)NC(=O)[C@H](C(C)C)NC(=O)C[C@@H]1O [SVPL1, [Val]^3-Aplidine] (Pyruvoyl-P[dNMeL]T[X2]VLP[NMeY](Me); ester 3-C)
- IC50 (P388 Murine lymphoma): 0.113 nM
- in vitro antitumor activity (tumor cells): high level of in vitro antitumor activity
- IC50 [1]: 0.113 nM
- IC50 (MEL-28 human melanoma): 0.113 nM
- IC50 [6]: 0.113 nM

Compound: [Hiv]^3-[L-Lac]^9-aplidine [9LSHPL1(L)]
- in vitro activity against pancreatic carcinoma (pancreatic carcinoma): somewhat more active in vitro than III
- in vitro antitumor activity in clonogenic assays [7]: retains similar levels of in vitro antitumor activity
- tumor type specificity in NCI 60 cell panel (NCI 60 cell panel): does not show any tumor type specificity
- protein biosynthesis inhibition properties (protein biosynthesis): retains similar levels
